We go through 61 molecules from patent US20260001892A1, “COMPOUND FOR REGULATING AND CONTROLLING ACTIVITY OF 15-PGDH AND PREPARATION METHOD THEREFOR” (SCINNOHUB PHARMACEUTICAL CO., LTD., priority 2022, published 2026).

As usually defined, the IC50 is the point on the concentration scale where inhibition reaches its midpoint.

Sequence of 15-PGDH (P15428 whole entry): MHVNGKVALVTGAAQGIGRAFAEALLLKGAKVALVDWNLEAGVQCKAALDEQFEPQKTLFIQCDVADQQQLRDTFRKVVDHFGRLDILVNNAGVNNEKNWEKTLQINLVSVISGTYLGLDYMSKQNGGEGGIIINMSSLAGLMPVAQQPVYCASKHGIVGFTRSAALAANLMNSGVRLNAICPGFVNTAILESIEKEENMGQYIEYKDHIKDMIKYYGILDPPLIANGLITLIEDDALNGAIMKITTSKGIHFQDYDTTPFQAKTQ

The assay addresses 15-PGDH (Homo sapiens (Human), UniProt P15428). In words: Detection of activity of 15-PGDH enzyme. The class given is biochemical. The following applies: inhibitory activity against 15-PGDH enzyme; substrates β-NAD and PGF2α; fluorescence Ex/Em=340/450. How it is done:
• a. A solution of pH 7.5 containing 50 mM Tris-HCl, 0.01% Tween 20 was prepared with ultrapure water as a reaction buffer; • b. A 10 mM mother liquor of the compound to be tested was prepared with DMSO, and then the reaction buffer was used to dilute the mother liquor of the compound to be tested to obtain solution 1 of the compound to be tested at a concentration of 40,000 nM, and then the solution 1 of the compound to be tested was serially diluted into solutions 2-9 (or 2-12) of the compound to be tested at 9 (or 11) concentrations with a gradient difference of three-fold. 5 μL of each concentration of solutions of the compound to be tested was respectively taken and added into a 384-well plate as test wells; • c. 5 μL of the reaction buffer was then added to the blank wells of the 384-well plate as positive control and blank control wells, respectively; • d. The reaction buffer was used to prepare a 15-PGDH protein solution at a concentration of 5 ng/μL, 5 μL of the 15-PGDH protein solution was taken and added to the test wells and positive control wells, and meanwhile 5 μL of the reaction buffer was added to the blank control wells, then the plate was centrifuged at 2000 rpm for 30 seconds; • e. The reaction buffer was used to prepare 5 mM $3-NAD and 2 mM PGF2α, respectively, which were mixed at 1:1 by volume to obtain a substrate mixture, 10 μL of the substrate mixture was taken and added to the test wells, positive control wells and blank control wells to start the reaction; • f. The fluorescence signal value (Ex/Em=340/450) of each well was detected continuously by using a multifunctional microplate reader.
• a) Continuous fluorescence signal values were analyzed by using the “kinetic calculations-slope calculation method” in the PHERAstar Data analysis software to obtain the slope of each test well; • b) The inhibition rate % was calculated by using the following formula: inhibition rate %=[1−(slope of test well-signal value of positive control well)/(signal value of blank control well-average signal value of positive control well)]×100%. • c) Calculation of IC50 and plotting of inhibition rate-dose curves: IC50 values were calculated by fitting compound concentrations and corresponding inhibition rates with a nonlinear regression (dose response-variable slope) via using GraphPad Prism 6.0. The formula was shown below:
Y=Bottom+(Top−Bottom)/(1+10^((Log IC50−X)*HillSlope)), wherein X is a log value of a concentration of the compound, and Y is inhibition rate %.
In the case of `Cn1cc(-c2cnc3c(C(F)(F)F)c(C(=O)N4CCCCC4)sc3n2)cn1` [Example 68], the IC50 lay within 3 to 10 nM. Then `COc1cc(-c2cnc3c(C4CC4)c(C(=O)N4CCCCC4)sc3n2)ccn1` [Example 26], with < 3 nM; and `N#Cc1c(C(=O)N2CCCCC2)sc2nc(-c3ccc4nccn4c3)cnc12` [Example 47], with 3 to 10 nM. As for `O=C(c1sc2nc(-c3cncs3)cnc2c1C(F)(F)F)N1CCCCC1` [Example 86], the figure is 3 to 10 nM; as for `O=C(c1sc2nc(-c3ccccc3)cnc2c1O)N1CCCCC1` [Example 101], 50 to 100 nM. Molecule `N#Cc1c(C(=O)N2CCCCC2)sc2nc(-c3cncnc3)cnc12` [Example 61] gave an IC50 of 3 to 10 nM.

As to `O=C(c1sc2nc(-c3ccccc3)cnc2c1C(F)(F)F)N1CCCCC1` [Example 63, (3-phenyl-7-(trifluoromethyl)thieno[2,3-b]pyrazin-6-yl)(piperidin-1-yl)methanone], the IC50 lay within 3 to 10 nM. In the case of `O=C(c1sc2nc(-c3ccc4nccn4c3)cnc2c1C1CC1)N1CCCCC1` [Example 12], the IC50 was < 3 nM.

In turn, `COc1cc(-c2cnc3c(C(F)(F)F)c(C(=O)N4CCCCC4)sc3n2)ccn1` [Example 85] yielded a half-inhibitory concentration (IC50) of 3 to 10 nM. Then `Cc1noc(C)c1-c1cnc2c(C3CC3)c(C(=O)N3CCCCC3)sc2n1` [Example 8], with 3 to 10 nM; and `O=C(c1sc2nc(-c3c[nH]c4ccccc34)cnc2c1C1CC1)N1CCCCC1` [Example 16], with 10 to 20 nM.

As to `CN(C)c1ncc(-c2cnc3c(C#N)c(C(=O)N4CCCCC4)sc3n2)cn1` [Example 58], the IC50 fell in the range of 3 to 10 nM. As for `O=C(c1sc2nc(-c3ccc4c(c3)OCO4)cnc2c1C1CC1)N1CCCCC1` [Example 14], the figure is 3 to 10 nM.

`N#Cc1c(C(=O)N2CCCCC2)sc2nc(-c3ccccc3)cnc12` [Example 33, 3-phenyl-6-(piperidine-1-carbonyl)thieno[2,3-b]pyrazine-7-carbonitrile] yielded an IC50 of 10 to 20 nM. Then `Cc1ccc(-c2cnc3c(C4CC4)c(C(=O)N4CCCCC4)sc3n2)cn1` [Example 24], with < 3 nM; and `O=C(c1sc2nc(-c3ccc(F)nc3)cnc2c1C(F)(F)F)N1CCCCC1` [Example 79], with 3 to 10 nM. Then `CN1Cc2cc(-c3cnc4c(C5CC5)c(C(=O)N5CCCCC5)sc4n3)ccc2C1=O` [Example 32], with < 3 nM; and `N#Cc1c(C(=O)N2CCCCC2)sc2nc(-c3ccc(N4CCOCC4)nc3)cnc12` [Example 43], with 10 to 20 nM. `O=C(c1sc2nc(-c3cccs3)cnc2c1C1CC1)N1CCCCC1` [Example 17] yielded an IC50 of 3 to 10 nM. In the case of `N#Cc1c(C(=O)N2CCCCC2)sc2nc(-c3cncs3)cnc12` [Example 56], the IC50 fell in the range of 3 to 10 nM.

In the case of `O=C(c1sc2nc(-c3ccccc3)cnc2c1C1CC1)N1CCCCC1` [Example 1, (7-cyclopropyl-3-phenylthieno[2,3-b]pyrazin-6-yl)(piperidin-1-yl)methanone], the IC50 is < 3 nM. Then `COc1c(C(=O)N2CCCCC2)sc2nc(-c3ccccc3)cnc12` [Example 95], with 3 to 10 nM; and `N#Cc1c(C(=O)N2CCCCC2)sc2nc(-c3ccc4ncsc4c3)cnc12` [Example 48], with 3 to 10 nM. As for `O=C(c1sc2nc(-c3ccc4c(c3)OCCO4)cnc2c1C1CC1)N1CCCCC1` [Example 21], the figure is 3 to 10 nM; as for `O=C(c1sc2nc(-c3ccccc3)cnc2c1Br)N1CCCCC1` [Example 98], < 3 nM; as for `COc1cc(-c2cnc3c(C#N)c(C(=O)N4CCCCC4)sc3n2)ccn1` [Example 55], 10 to 20 nM.

In turn, `O=C(c1sc2nc(-c3cncs3)cnc2c1C1CC1)N1CCCCC1` [Example 29] showed an IC50 of 3 to 10 nM. As for `O=C(c1sc2nc(-c3cncnc3)cnc2c1C(F)(F)F)N1CCCCC1` [Example 91], the figure is 3 to 10 nM; as for `Cc1cc(-c2cnc3c(C4CC4)c(C(=O)N4CCCCC4)sc3n2)ccn1` [Example 2, (7-cyclopropyl-3-(2-methylpyridin-4-yl)thieno[2,3-b]pyrazin-6-yl)(piperidin-1-yl)methanone], 3 to 10 nM; as for `O=C(c1sc2nc(-c3ccc(N4CCOCC4)nc3)cnc2c1C1CC1)N1CCCCC1` [Example 19], 3 to 10 nM. As for `O=C(c1sc2nc(-c3cccnc3)cnc2c1C1CC1)N1CCCCC1` [Example 7], the figure is 3 to 10 nM; as for `O=C(c1sc2nc(-c3ccnc(F)c3)cnc2c1C1CC1)N1CCCCC1` [Example 4], 3 to 10 nM. For `COc1ncc(-c2cnc3c(C(F)(F)F)c(C(=O)N4CCCCC4)sc3n2)cn1` [Example 64, (3-(2-methoxypyrimidin-5-yl)-7-(trifluoromethyl)thieno[2,3-b]pyrazin-6-yl)(piperidin-1-yl)methanone], the half-inhibitory concentration (IC50) fell in the range of 3 to 10 nM. Regarding `COc1ncc(-c2cnc3c(C4CC4)c(C(=O)N4CCCCC4)sc3n2)cn1` [Example 5], the IC50 is < 3 nM. Then `N#Cc1c(C(=O)N2CCCCC2)sc2nc(-c3cnc(N4CCOCC4)nc3)cnc12` [Example 59], with 3 to 10 nM. Then `Cc1cc(-c2cnc3c(C(F)(F)F)c(C(=O)N4CCCCC4)sc3n2)ccn1` [Example 87], with < 3 nM. Then `Nc1ncc(-c2cnc3c(C4CC4)c(C(=O)N4CCCCC4)sc3n2)cn1` [Example 31], with < 3 nM.

Regarding `O=C(c1sc2nc(-c3ccc(F)nc3)cnc2c1C1CC1)N1CCCCC1` [Example 27], the IC50 is 3 to 10 nM. As for `COc1ccc(-c2cnc3c(C#N)c(C(=O)N4CCCCC4)sc3n2)cn1` [Example 50], the figure is 10 to 20 nM. Then `O=C(c1sc2nc(-c3ccc4c(c3)OCCO4)cnc2c1C(F)(F)F)N1CCCCC1` [Example 76], with 10 to 20 nM. Then `O=C(c1sc2nc(-c3cncnc3)cnc2c1C1CC1)N1CCCCC1` [Example 22], with < 3 nM; and `O=C(c1sc2nc(-c3ccnc(F)c3)cnc2c1C(F)(F)F)N1CCCCC1` [Example 65], with 3 to 10 nM. `O=C(c1sc2nc(-c3ccc4ncsc4c3)cnc2c1C(F)(F)F)N1CCCCC1` [Example 78]: the IC50 fell in the range of 10 to 20 nM. Then `O=C(c1sc2nc(-c3ccncc3)cnc2c1C1CC1)N1CCCCC1` [Example 9], with 3 to 10 nM; and `O=C(c1sc2nc(-c3ccc4nccn4c3)cnc2c1C(F)(F)F)N1CCCCC1` [Example 77], with 3 to 10 nM. As for `Cc1noc(C)c1-c1cnc2c(C(F)(F)F)c(C(=O)N3CCCCC3)sc2n1` [Example 70], the figure is 10 to 20 nM.

On to `N#Cc1ccc(-c2cnc3c(C(F)(F)F)c(C(=O)N4CCCCC4)sc3n2)cn1` [Example 67], for which the IC50 lay within 10 to 20 nM. Turning to `CC(C)c1c(C(=O)N2CCCCC2)sc2nc(-c3ccccc3)cnc12` [Example 99], the IC50 is 10 to 20 nM. Then `COc1ncc(-c2cnc3c(C#N)c(C(=O)N4CCCCC4)sc3n2)cn1` [Example 34, 3-(2-methoxypyrimidin-5-yl)-6-(piperidine-1-carbonyl)thieno[2,3-b]pyrazine-7-carbonitrile], with 10 to 20 nM; and `O=C(c1sc2nc(-c3cnc(N4CCOCC4)nc3)cnc2c1C1CC1)N1CCCCC1` [Example 3], with < 3 nM.

For `Cn1cc(-c2cnc3c(C4CC4)c(C(=O)N4CCCCC4)sc3n2)ccc1=O` [Example 18], the concentration for half-maximal inhibition (IC50) is < 3 nM. As for `O=C(c1cc2ncc(-c3ccccc3)nc2s1)N1CCCCC1` [Example 100], the figure is 10 to 20 nM; as for `COc1ccc(-c2cnc3c(C(F)(F)F)c(C(=O)N4CCCCC4)sc3n2)cn1` [Example 80], 3 to 10 nM. As for `O=C(c1sc2nc(-c3ccncc3)cnc2c1C(F)(F)F)N1CCCCC1` [Example 72], the figure is 3 to 10 nM; as for `N#Cc1ccc(-c2cnc3c(C4CC4)c(C(=O)N4CCCCC4)sc3n2)cn1` [Example 11], 10 to 20 nM. As for `O=C(c1sc2nc(-c3cccnc3)cnc2c1C(F)(F)F)N1CCCCC1` [Example 74], the IC50 is < 3 nM. As for `O=C(c1sc2nc(-c3cccs3)cnc2c1C(F)(F)F)N1CCCCC1` [Example 69], the concentration for half-maximal inhibition (IC50) is < 3 nM. As for `COc1ccc(-c2cnc3c(C4CC4)c(C(=O)N4CCCCC4)sc3n2)cn1` [Example 23], the figure is 10 to 20 nM; as for `CN1Cc2cc(-c3cnc4c(C#N)c(C(=O)N5CCCCC5)sc4n3)ccc2C1=O` [Example 62], 3 to 10 nM; as for `Nc1cc(-c2cnc3c(C4CC4)c(C(=O)N4CCCCC4)sc3n2)ccn1` [Example 28], 3 to 10 nM.

In turn, `CN(C)c1ncc(-c2cnc3c(C(F)(F)F)c(C(=O)N4CCCCC4)sc3n2)cn1` [Example 88] yielded an IC50 of 10 to 20 nM.
